In brackets after ≈: the same amount, converted by molar mass.
Key:
DHD/Trb cells = test: fluorescence microscopy of intracellular distribution/expression of E-cadherin, β-catenin, APC, GSK-3β and CK20; format: cell-based, rat; details: non-conjugated SN38
Source text: Due to the importance of the role of regulating the β-catenin in the formation and progression of colon-rectal carcinomas, it was verified whether the treatment with Oncofid-S is capable of modifying the intracellular expression and distribution of the molecules involved in the control process of the above protein, as previously described. The effect of the treatment with ONCOFID-S on the intracellular distribution of E-cadherin, β-catenin, APC e GSK-3β in the DHD/Trb cells was therefore analyzed by means of fluorescence microscopy. Specific antibodies were used for the above proteins, visualizing them with the use of secondary antibodies bound to fluorochromes such as rodamin and fluoroescein.

[1] = test system: Adenocarcinoma cells of the colon of a rat DHD/K12/Trb; test: cytofluorometric analysis of cell phases (DNA content, propidium iodide) and wash out test; format: cell-based; details: 0.5 μg/ml, 24 h of treatment; ONCOFID-S 3.5% w/w
Description: Adenocarcinoma cells of the colon of a rat DHD/K12/Trb
As described for examples 8 and 9.
The effect of the ONCOFID-S conjugate (at a concentration of 0.5 μg/ml) was determined using an analysis of the cytofluorometric type; after 24 h of pharmacological treatment, the cell phases are identified with FACS-Scan (Becton Dickinson) by cytofluorometric, analysis of the DNA content after colouring the cells with propidium iodide.
In order to evaluate whether the data obtained persist with time, the Wash out test was effected in which, after 48 h of treatment, the culture medium is substituted with fresh medium without treatment: the cell phases were then defined again at the point defined as TO and, after 24 h of culture, T24.

[2] = test system: Adenocarcinoma cells of the colon of a rat DHD/K12/Trb; test: cell vitality, Tripan blue exclusion method; format: cell-based; details: 24 h of treatment, ONCOFID-S derivatized at 3.5% w/w (Example 2)
Source text: Adenocarcinoma cells of the colon of a rat DHD/K12/Trb expressing the receptor for HA CD44
Adenocarcinoma cells of the colon of a rat DHD/K12/Trb.

[3] = test system: DHD/K12/Trb peritoneal carcinomatosis; test: anti-tumoral effect in vivo, peritoneal carcinomatosis and tumoral ascites induced by DHD/K12/Trb in BDIX rats; design: species or system rat; details: 40 mg/kg intraperitoneally
Description: Animals treated: 36 male rats BDIX 7 weeks' old (about 200 g) were divided according to experimental criteria into the following groups (each group consists of 12 animals):
1. Control Group: inoculum DHD/K12/trb.
2. CPT-11 Group: inoculum DHD/K12/trb+treatment CTP-11 40 mg/Kg intraperitoneally.
After 14 days of stabling, 1×10^6 DHD/K12/trb cells per rat were inoculated intraperitoneally. After 7 days the therapeutic treatment envisaged was initiated, consisting of 4 therapy cycles. The sacrifice of the animals was established 7 days after the last pharmacological treatment. The animals were evaluated once a week for the appearance of possible signs of toxicity, by measuring the body weight, and for the possible appearance of ascites. At the moment of sacrifice an intracardiac sampling was effected in all the animals and the haematological toxicity due to the pharmacological treatment was evaluated. The tumours and ascites were removed and measured. The tissues removed were fixed in formalin for histological and immunohistochemical evaluation.

Row | SMILES | modifications relating to cell differentiation (APC/GSK-3β, β-catenin, E-cadherin, CK20) (DHD/Trb cells) | gap1 and S phases of the cell cycle [1] | IC50 [2] [µg/mL] | animals with bloody ascites [3] [%] | average reduction in the tumoral mass ([3]; vs control) [%]
1 | CCc1c2c(nc3ccc(O)cc13)-c1cc3c(c(=O)n1C2)COC(=O)[C@]3(O)CC [SN38] | not revealed | increases both the first phase and the S phase | 1.4 (≈ 3.57 µM) |  | 
2 | CCc1c2c(nc3ccc(OC(=O)N4CCC(N5CCCCC5)CC4)cc13)-c1cc3c(c(=O)n1C2)COC(=O)[C@]3(O)CC [CPT-11, Irinotecan] |  |  |  | 83 | 62

Source: US9789200B2, “Therapeutic use of new pharmaceutical preparations containing antitumoral drugs bound to hyaluronic acid in the treatment of neoplasias” (FIDIA FARMACEUTICI S.P.A., priority 2008, dated 2017)
